Target: T1, cytosolic phosphoenolpyruvate carboxykinase (PCK1) (Rattus norvegicus, UniProt P07379)
T1 sequence (P07379 1-622): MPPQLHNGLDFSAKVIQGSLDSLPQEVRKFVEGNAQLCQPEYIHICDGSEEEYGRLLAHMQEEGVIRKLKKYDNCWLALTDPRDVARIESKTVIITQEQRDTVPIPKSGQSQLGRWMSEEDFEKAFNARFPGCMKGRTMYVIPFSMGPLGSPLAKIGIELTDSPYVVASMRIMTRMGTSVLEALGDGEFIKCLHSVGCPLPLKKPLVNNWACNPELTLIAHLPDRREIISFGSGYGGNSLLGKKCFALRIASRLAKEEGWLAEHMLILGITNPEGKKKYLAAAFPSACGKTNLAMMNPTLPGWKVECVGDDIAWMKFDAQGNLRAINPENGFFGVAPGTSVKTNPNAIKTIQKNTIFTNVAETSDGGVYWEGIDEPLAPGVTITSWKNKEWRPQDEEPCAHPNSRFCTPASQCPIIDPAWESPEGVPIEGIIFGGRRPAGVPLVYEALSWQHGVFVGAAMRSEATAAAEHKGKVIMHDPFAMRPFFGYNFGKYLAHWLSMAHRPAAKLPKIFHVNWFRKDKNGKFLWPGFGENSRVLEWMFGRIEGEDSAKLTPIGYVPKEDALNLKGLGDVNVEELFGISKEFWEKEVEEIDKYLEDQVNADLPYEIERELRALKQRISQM
Assay: STD NMR and DEEP-STD NMR
Type: binding

For CC(C)(COP(=O)(O)OP(=O)(O)OC[C@H]1O[C@@H](n2cnc3c(N)ncnc32)[C@H](O)[C@@H]1OP(=O)(O)O)[C@@H](O)C(=O)NCCC(=O)NCCS [coenzyme A], the “STD NMR and DEEP-STD NMR” value was “STD NMR experiments showed clear STD signals for both, acetyl-CoA and CoA (see Fig. S4), confirming that they bind to PCK1”.

— publication PMC7948413 (The Journal of Biological Chemistry, 2021)
